In ChEMBL document CHEMBL3585312, “Anti-MRSA activity of isoplagiochin-type macrocyclic bis(bibenzyl)s is mediated through cell membrane damage” (2015):
Converted amounts (≈) assume the structure as drawn. The source made the active and inactive calls. The rule behind the calls is not given here.

What was measured:
Type in all cases: functional
Staphylococcus aureus [1] = experiment: Antimicrobial activity against methicillin-resistant Staphylococcus aureus N315 after 24 hrs by broth microdilution method; settings: N315, 24 h
Staphylococcus aureus [2] = experiment: Induction of methicillin-resistant Staphylococcus aureus N315 membrane damage using ethidium bromide assessed as fluorescence intensity at 10 ug/ml by ethidium bromide inflow assay
Staphylococcus aureus [3] = experiment: Induction of methicillin-resistant Staphylococcus aureus N315 membrane damage using ethidium bromide assessed as fluorescence intensity at 10 ug/ml by ethidium bromide outflow assay
Staphylococcus aureus [4] = experiment: Induction of methicillin-resistant Staphylococcus aureus N315 membrane damage assessed as increase in Na+ concentration at 10 ug/ml after 90 mins by coupled plasma optical emission spectrometry
Staphylococcus aureus [5] = experiment: Induction of methicillin-resistant Staphylococcus aureus N315 membrane damage assessed as decrease in K+ concentration at 10 ug/ml after 90 mins by coupled plasma optical emission spectrometry
Staphylococcus aureus [6] = experiment: Induction of methicillin-resistant Staphylococcus aureus N315 membrane damage using ethidium bromide assessed as fluorescence intensity at 100 ug/ml by ethidium bromide inflow assay
Staphylococcus aureus [7] = experiment: Induction of methicillin-resistant Staphylococcus aureus N315 membrane damage using ethidium bromide assessed as fluorescence intensity at 100 ug/ml by ethidium bromide outflow assay

Structure (SMILES)	MIC (Staphylococcus aureus [1]) [µg/mL]	Activity (Staphylococcus aureus [2])	Activity (Staphylococcus aureus [3])	Activity (Staphylococcus aureus [4])	Activity (Staphylococcus aureus [5])	Activity (Staphylococcus aureus [6])	Activity (Staphylococcus aureus [7])
Oc1ccc2c(c1)CCc1cccc(c1)-c1cccc(c1)CCc1ccc-2c(O)c1	0.5 (≈ 1.27 µM)	Active	Active	Active	Active		
Oc1ccc2c(c1)CCc1ccc(cc1)Oc1cccc(c1)CCc1ccc-2c(O)c1		Active	Active				
Oc1ccc2c(c1)CCc1ccc(cc1)-c1cccc(c1)CCc1ccc-2c(O)c1				inactive	inactive	inactive	inactive
Oc1ccc2c(c1)CCc1ccccc1-c1cccc(c1)CCc1ccc-2c(O)c1	2 (≈ 5.1 µM)						
